Results taken from patent publication US6825236B2, “Colchicine derivatives” (California Pacific Medical Center, priority 2003, dated 2004).

Columns and labels:
C3H/HeJ mice = assay: In vivo toxicity (MTD / nontoxicity dose), intraperitoneal injection; conditions: highest dose causing no severe irreversible toxicity
Protocol: This example provides directions for performing in vivo toxicity tests of the compounds of the invention on C3H/HeJ mice.
Acute toxicities of the compounds of this invention are evaluated on C3H/HeJ mice (body weight 18-22 g). The MTD40 (maximum tolerated dose at day 40) values are determined by the standard procedure described by Gad and Chengelis (see, for example, “Acute Toxicology Testing,” 2nd Ed., Shayne O. Gad and Christopher P. Chengelis, pp. 186-195 (Academic Press).) In the consecutive type studies, 2 mice are dosed at low and moderate doses of 40 and 100 mg/kg. If no severe and irreversible toxicity (euthanasia is required) occurs at these doses, a new pair of animals is initiated at 180 mg/kg, which is 1.8 times higher than 100 mg/kg. Sequential dosages (about 3 doses on 3 pairs of animals, i.e. 2 mice for each drug dose) are increased by a factor of 1.8 until severe and irreversible toxicity (euthanasia is required) occurred. Then another pair of animals is initiated at the highest nonlethal dosage, and successive dosages were increased by a factor of 1.15. The result of this exercise is two dosages, one apparently nonlethal and the other lethal if severe and irreversible toxicity occurs and euthanasia is required, separated by a factor of 1.15. Six mice are dosed at each dosage. If no severe and irreversible toxicity occurs at the lower dosage and at least one with severe and irreversible toxicity occurs at the higher dose, then the lower dose is considered to be the MTD. The compounds of this invention are administered to C3H/HeJ mice by intraperitoneal injection (IP). Drug toxicity is evaluated on mice checked daily for 45 days. The toxicity parameters reported will be the MTD40.

[1] = tested on: MTG-B mouse mammary adenocarcinoma; assay: In vivo efficacy in mice bearing MTG-B tumors; parameters: species or system C3H/HeJ mice; conditions: for Surviving days after treatment of MTG-B mouse mammary adenocarcinoma in C3H/Hcj mice: i.p., days from day 0, survival time of control mice generally 6 days; for T/C %: surviving days of treated mice / surviving days of control mice x 100%
Protocol: This example provides directions for performing in vivo efficacy tests of the compounds of the invention on C3H/HeJ mice bearing MTG-B tumors.
Studies on the compounds of this invention are performed on C3H/HeJ mice bearing MTG-B tumors. The tumors grow exponentially following implantation into the flanks of the mice and reached a diameter of 8 mm (268.08 mm^3) by day 7 to 10. Treatment is initiated at that time, with the first day of treatment designated as day 0 for calculation and plots. The mice are injected i.p. with three drug dose levels (⅓, ½, 1 5 MTD) using both a single injection and the schedule of Q2D 5 3 (every 2 days for a total of 3 treatments at ⅓ MTD). Control groups of mice bearing 8 mm diameter tumors are treated with vehicle alone. After drug treatment, the mice are observed twice a day. When a tumor reaches 1.5 g, the mouse bearing the tumor wis euthanized. Surviving days measured from day 0 for mice treated with anticancer drugs (T) and surviving days measured from day 0 for control mice (C) are recorded. Tumor growth inhibition values (T/C %) are calculated using the formula T/C %=(surviving days of mice treated with an anticancer drug T/surviving days of control mice C) 5 100%.
Tumor sizes may be measured by caliper every day. Daily measurement (mm) of solid tumor (length L and width W) in two dimensions is used to calculate the tumor weight [tumor weight=(length 5 width^2)/2] based on the interchangeable value of 1 mm^3=1 mg. Tumor growth delay (T−C value) is determined by calculation of the median time (in days) required for the treatment group and control group tumors to reach 1,000 mg. Tumor doubling time (Td) is measured, and tumor cell kill is calculated by the formula of log cell kill=(T−C value)/(3.32 5 Td). Regression effects after treatment may be observed and recorded (a complete regression: a regression below limit of palpation; a partial regression: a regression of more than 50% reduction in tumor mass).
Generally, the survival time of the control mice is six (6) days. A ratio of the extra days of survival of mice treated with the compounds of the invention (compared to control) to the extra days of survival of mice treated with taxol (compared to control), can be calculated. For example, if the mice survived 18 days as compared to 9 days for taxol-treated mice, the CD/Taxol ratio would be 18−6/9−6=12/3=4 or 400%.
The following Table II provides a summary of the in vivo toxicity and iv vivo efficacy tests described in Examples 41 and 42 for the compounds tested.

HCT116 = assay: Cell colony formation assay; type: cell-based; conditions: 72 hours with drug, colonies counted after 7 days
Protocol: This example provides directions for growing cells and testing compounds of the invention for their effect on the growth of the cells. All cells were purchased from DCTDC Tumor Repository, NCI, NIH.
Cell Colony Formation Assay
Four hundred cells (HCT 116, PC-3) or five hundred cells (VM46) were plated in 60 mm Petri dishes containing 2.7 ml of medium (modified McCoy's 5a medium) containing 10% fetal bovine serum and 100 units/ml penicillin and […] streptomycin. The cells were incubated in a CO2 incubator at 37° C. for 5 hours for attachment to the bottom of Petri dishes. Drugs were made fresh in medium at ten times the final concentration, and then 0.3 ml of this stock solution was added to the 2.7 ml of medium in the dish. The cells were then incubated with drugs for 72 hours at 37° C. At the end of the incubation the drug-containing media were decanted, the dishes were rinsed with 4 ml of Hank's Balance Salt Solution (HBSS), 5 ml of fresh medium was added, and the dishes were returned to the incubator for colony formation. The cell colonies were counted using colony counter after incubation for 7 days for HCT116 cells and PC-3 cells and 8 days for VM46 cells, respectively.
Values of ID50 (the drug concentration producing 50% inhibition of colony formation) may be determined for each tested compound. The directions described in this example may be used in other cells, such as DU-145.

Row | Molecule | In Vivo Toxicity Nontoxicity Dose (ip. mg/kg) in C3H/Hej mice (C3H/HeJ mice) | Surviving days after treatment of MTG-B mouse mammary adenocarcinoma in C3H/Hcj mice [1] [days] | T/C % [1] [%] | Survival (%) of HCT116 (HCT116; 1 nM) [%] | Survival (%) of HCT116 (HCT116; 10 nM) [%] | Survival (%) of HCT116 (HCT116; 100 nM) [%]
1 | COc1cc2c(c(OC)c1OC)-c1ccc(OC)c(=O)cc1C(NC(C)=O)CC2 (stereo not shown) [Colchicine] | 1.6 (0.5) mg/kg | 9 | 150 | 100 | 76.1 | 0
2 | COc1cc2c(c(OC)c1OC)-c1ccc(SC)c(=O)cc1C(NC(=O)COc1ccc(F)cc1)CC2 (stereo not shown) [Compound 000811, N-Deacetyl-N-(4-fluorophenoxyacetyl)thiocolchicine] | 150 mg/kg |  |  |  | 50.4 | 0
3 | COc1cc2c(c(OC)c1OC)-c1ccc(SC)c(=O)cc1C(NC(=O)COc1ccc(Cl)cc1)CC2 (stereo not shown) [Compound 000814, N-Deacetyl-N-(4-chlorophenoxyacetyl)thiocolchicine] | 100 mg/kg |  |  |  | 87.7 | 0
4 | COc1cc2c(c(OC)c1OC)-c1ccc(SC)c(=O)cc1C(NC(=O)COc1ccc(Br)cc1)CC2 (stereo not shown) [Compound 000815, N-Deacetyl-N-(4-bromophenoxyacetyl)thiocoichicine] | 100 (100) mg/kg | 9 | 150 |  | 93.8 | 0
5 | COc1cc2c(c(OC)c1OC)-c1ccc(SC)c(=O)cc1C(NC(=O)COc1ccc(I)cc1)CC2 (stereo not shown) [Compound 000816, N-Deacetyl-N-(4-iodophenoxyacetyl)thiocolchicine] | 100 mg/kg |  |  |  | 100 | 0
6 | COc1cc2c(c(OC)c1OC)-c1ccc(SC)c(=O)cc1C(NC(=O)COc1cc(C)ccc1C)CC2 (stereo not shown) [Compound 000817, N-Deacetyl-N-(2,5-dimethylphenoxyacetyl)thiocolchicine] | 100 mg/kg |  |  |  | 99.8 | 0
7 | COc1ccc(OCC(=O)N[C@H]2CCc3cc(OC)c(OC)c(OC)c3-c3ccc(SC)c(=O)cc32)cc1 [Compound 000825, N-Deacetyl-N-(4-methoxyphenoxyacetyl)thiocolchicine] | 50 (30) mg/kg | 18 |  | 90.25 | 0 | 0
8 | COc1cc2c(c(OC)c1OC)-c1ccc(SC)c(=O)cc1C(NC(=O)COc1ccc(C=O)cc1)CC2 (stereo not shown) [Compound 000829, N-Deacetyl-N-(4-formylphenoxyacetyl)thiocolchicine] | 150 (120) mg/kg | 13 | 217 | 100 | 0 | 0
9 | COc1cc2c(c(OC)c1OC)-c1ccc(SC)c(=O)cc1C(NC(=O)COc1ccccc1[N+](=O)[O-])CC2 (stereo not shown) [Compound 000830, N-Deacetyl-N-(2-nitrophenoxyacetyl)thiocolchicine] | 150 (120) mg/kg | 8 | 133 |  | 9.01 | 0
10 | COc1cc2c(c(OC)c1OC)-c1ccc(SC)c(=O)cc1C(NC(=O)c1ccc([N+](=O)[O-])o1)CC2 (stereo not shown) [Compound 000906, N-Deacetyl-N-(5-nitro-2-furnancarbonyl)thiocolchicine] | 50 mg/kg |  |  | 98.67 | 0 | 0
11 | COc1cc2c(c(OC)c1OC)-c1ccc(SC)c(=O)cc1C(NC(=O)c1cccc(NC(=O)CCl)c1)CC2 (stereo not shown) [Compound 000911, N-Deacetyl-N-(3-chloroacetaminobenzoyl)thiocolchicine] | 30 (30) mg/kg | 11 | 183 | 100 | 0 | 0
12 | COc1cc2c(c(OC)c1OC)-c1ccc(SC)c(=O)cc1C(NC(=O)c1cc(=O)c3ccccc3o1)CC2 (stereo not shown) [Compound 000914, N-Deacetyl-N-(chromone-2-carbonyl)thiocolchicine] | 150 (120) mg/kg |  |  |  | 3.54 | 0
13 | N-Deacetyl-N-(4-methoxyphenoxyacetyl)thiocolchicine [Compound 000818] |  | 8 |  |  | 98.8 | 0
